# In patent US7842683B2, “Neurotherapeutic compositions and method” (Revaax Pharmaceuticals, LLC, priority 1999, dated 2010):
# Columns and labels:
# [1] = tested on: male golden hamsters; assay: Resident/intruder paradigm of offensive aggression; assay type: in vivo, Syrian golden hamsters (Mesocricetus auratus)
# Description: Male Syrian golden hamsters (Mesocricetus auratus) (140-150 g) obtained from Harlan Sprague-Dawley Laboratories (Indianapolis, Ind.) were housed individually in Plexiglas cages (24 cm×24 cm×20 cm), maintained on a reverse light:dark cycle (14L:10D; lights on at 19:00 hr) and provided food and water ad libitum. Animals were acclimated to the reverse light:dark cycle for at least two weeks before testing. All behavioral tests were conducted during the dark phase of the circadian cycle. All animals were acquired and cared for in accordance with the guidelines published in the Guide for the Care and Use of Laboratory Animals (National Institutes of Health Publications No. 85-23, Revised 1985).
# (§1) Agonistic behavior can be classified as either offensive or defensive aggression (Blanchard and Blanchard, 1977; Adams, […]; Albert and Walsh, 1984). Offensive aggression is characterized by the aggressor initiating an attack on an opponent, while defensive aggression lacks active approach. Both types of aggression have their own unique neurobehavioral systems. The stimuli that elicit offensive and defense attack are different, as are the sequences of behaviors that accompany each agonistic response. […] Offensive aggression is easily studied using male golden hamsters tested in a resident/intruder paradigm, an established model of offensive aggression (Ferris and Potegal 1988). Placing an unfamiliar male hamster into the home cage of another male hamster elicits a well-defined sequence of agonistic behaviors from the resident that includes offensive aggression.
# (§2) Hamsters are nocturnal and as such all behavioral tests were performed during the first four hrs of the dark phase under dim red illumination. The resident was scored for offensive aggression, e.g., latency to bite the intruder, the total number of bites, total contact time with the intruder and flank marking over a 10 min test period (Ferris and Potegal, 1988). Flank marking is a form of olfactory communication in which a hamsters arches its back and rubs pheromone producing flank glands against objects in the environment (Johnson, 1986).
# Parametric data, i.e., latencies and contact time, were analyzed with a one-way ANOVA followed by Newman-Keuls post hoc tests. Non parametric data, i.e., number of bites and flank marks, were analyzed with Kruskal-Wallis tests followed by Mann-Whitney U tests to determine differences between groups. Two sample comparisons were analyzed with paired and unpaired t-Tests for parametric data and Wilcoxon and Mann-Whitney Tests for paired and unpaired non-parametric data, respectively.
# as §1, with “by an” for “by the”, “an opponent; while,” for “an opponent, while”, “Potegal 1988) in the context of defending the home burrow.” for “Potegal 1988).”
# as §2, with “Flank marking is a form of olfactory communication in which a hamsters arches its back and rubs pheromone producing flank glands against objects in the environment (Johnson, 1986).” left out
# [2] = tested on: hamsters; assay: Olfactory discrimination: latency to find hidden sunflower seeds; assay type: in vivo, Syrian golden hamsters (Mesocricetus auratus); conditions: 1 mg/kg intracerebroventricular, sixty min, five min observation
# Description: Sixteen animals were treated with vehicle or 50 μg/kg Mox and tested for olfactory discrimination by measuring their latency to find hidden sunflower seeds (FIG. 5). The injections were counterbalanced with each animal receiving each treatment. Prior to testing animals were fasted for 24 hrs. Ninety minutes after injection animals were briefly taken from their home cage while six sunflower seeds were buried under the bedding in one corner. Animals were placed back into their home cage and scored for the latency to find the seeds in a ten min observation period. […] In fact, not one of the sixteen animals consumed all of the seeds following saline as compared to all animals treated with Mox.
# Six animals received an intracerebroventricular injection of vehicle or 1 mg/kg PPP and tested for olfactory discrimination by measuring their latency to find hidden sunflower seeds (FIG. 16). The injections were counterbalanced with each animal receiving each treatment. Prior to testing animals were fasted for 24 hrs. Sixty min. After injection animals were briefly taken from their home cage while six sunflower seeds were buried under the bedding in one corner. Animals were placed back into their home cage and scored for the latency to find the seeds in a five min. Observation period.
# [3] = in vivo; cited from earlier work
# [4] = tested on: golden hamsters; assay: Seed finding model of anxiety; assay type: in vivo, Syrian golden hamsters (Mesocricetus auratus)
# Description: Clavulanic acid (CLAV) is structurally similar to the beta-lactam antibiotics. A most robust and simple bioassay for screening beta-lactams for CNS activity is the golden hamster seed finding model of anxiety. Briefly, hamsters are deprived of food overnight. The following day they are exposed to the additional stress of being taken from their home cage and placed in a novel environment for a few minutes. This manipulation stimulates the release of the stress hormone cortisol (FIG. 37). During their absence from the home cage, sunflower seeds are hidden under the bedding in one of the corners. When returned to the home cage, hamsters routinely scramble along the walls for 1-2 min before settling down, locating and eating the seeds. However, animals treated with the benzodiazepine anxiolytic chlordiazepoxide find seeds in less than 10 sec.
# Male, Syrian golden hamsters (Mesocricetus auratus) (120-130 g) obtained from Harlan Sprague-Dawley Laboratories (Indianapolis, Ind.) were housed individually in Plexiglas cages (24 cm×24 cm×20 cm), maintained on a reverse light:dark cycle (14L:10D; lights on at 19:00 hr) and provided food and water ad libitum. A range of concentrations of CLAV (saline vehicle, 0.1, 1.0, 10, 100 1,000 ng/kg) were tested in six groups of hamsters (4-8/group)(FIG. 25). All tests were conducted during the dark phase of the circadian cycle under dim red illumination. Prior to testing all animals were fasted for 20-24 hrs. Ninety min after intraperitoneal (IP) injection of drug, animals were taken from their home cage and placed into a holding cage for 2 min. During their absence, six sunflower seeds were buried under the bedding in one corner of their home cage. Animals were placed back into their home cage randomly facing any one of the empty corners and timed for their latency to find the seeds in a five min observation period. Latency times were analyzed with a one-way ANOVA followed by Scheffe's post hoc tests. Assumption of equal variances was tested (Hartley's F-max=2.1 p>0.05)
# It was hypothesized that CLAV functioned as an anxiolytic in the seed finding assay by blocking NAALADase activity in the brain. If this notion were true then it would be predicted that drugs known to block NAALADase should also enhance seed finding. To this end, animals were treated with N-acetyl-beta-aspartyl-glutamic acid (beta-NAAG), a competitive inhibitor of NAALADase (Serval et al., 1992) and tested in the seed finding model of anxiety. The study was similar to that outlined in Section I with one notable exception. […] Beta-NAAG (FW 304) was given in a dose of 3 ng in a volume of 1 μl saline ICV. The average adult hamster brain weights ca. 1.2 g of which 22% is extracellular fluid. The estimated beta-NAAG concentration was 11 ng/ml or 36 nM.
# Two groups of six animals each were fasted overnight as previously described and tested the following day. One group was treated with beta-NAAG and the other saline vehicle and one hr later timed for latency to find the hidden sunflower seeds. A Student t-test for unpaired data was used for statistical comparisons.
# [5] = Estimated fluid and brain concentrations after dosing hamsters; assay type: in vivo, hamster
# Description: The adult male hamsters used in these studies weighed around 125 g. […] CLAV has a volume of distribution approximating the extracellular fluid volume. The extracellular water content of lean body mass is approximately 22%.
# To this end, animals were treated with N-acetyl-beta-aspartyl-glutamic acid (beta-NAAG), a competitive inhibitor of NAALADase (Serval et al., 1992) and tested in the seed finding model of anxiety. The study was similar to that outlined in Section I with one notable exception. […] Beta-NAAG (FW 304) was given in a dose of 3 ng in a volume of 1 μl saline ICV. The average adult hamster brain weights ca. 1.2 g of which 22% is extracellular fluid.
# [6] = high dose ca. 5 mg/kg, 9 mM, IP
# [7] = high dose ca. 5 mg/kg, 9 mM, IP, 90 min
Molecule,"contact time ([1]; equimolar (90 μM) IP, 90 min)","flank marking ([1]; equimolar (90 μM) IP, 90 min)","contact time [1, 6]","flank marking [1, 6]","latency to bite [1, 7]","number of bites [1, 7]",blood-brain barrier transport / CNS penetrability [3],also measured
"CC1(C)S[C@@H]2[C@H](NC(=O)C(C(=O)O)c3ccccc3)C(=O)N2[C@H]1C(=O)O (stereo partly drawn) [Carb, Carbenicillin]",no significant treatment effect,no significant treatment effect,no significant treatment effect,no significant treatment effect,significantly delayed,significantly reduced,–,–
"CC1(C)S[C@@H]2[C@H](NC(=O)[C@H](N)c3ccc(O)cc3)C(=O)N2[C@H]1C(=O)O [Amox, Amoxicillin]",no significant treatment effect,no significant treatment effect,–,–,–,–,–,"aggressive behavior ([1]; 1 mg/kg (ca. 2 mM) IP, 90 min): not significantly altered"
"CC1(C)S[C@@H]2[C@H](NC(=O)[C@H](N)c3ccccc3)C(=O)N2[C@H]1C(=O)O [Amp, Ampicillin]",no significant treatment effect,no significant treatment effect,no significant treatment effect,no significant treatment effect,significantly delayed,significantly reduced,–,"number of bites ([1]; equimolar (90 μM) IP, 90 min): significantly reduced; latency to bite ([1]; equimolar (90 μM, equal to 50 μg/kg Mox) IP, 90 min): significantly delayed"
Ala-D-γ-Glu-Lys-D-Ala-D-Ala [PPP],–,–,–,–,–,–,–,"contact time ([1]; ca. 1 mg/kg ICV): no significant difference; flank marking ([1]; ca. 1 mg/kg ICV): no significant difference; number of bites ([1]; ca. 1 mg/kg ICV, sixty minutes): reduced; latency to bite ([1]; ca. 1 mg/kg in 1 μl into lateral ventricle, sixty minutes): significantly increased; latency to find the seed [2]: significantly (p<0.05) reduced"
"CO[C@@]1(NC(=O)Cc2cccs2)C(=O)N2C(C(=O)O)=C(COC(N)=O)CS[C@@H]21 [Cef, Cefoxitin]",no significant treatment effect,no significant treatment effect,no significant treatment effect,no significant treatment effect,–,–,poor CNS penetrability,–
"CC(=O)N[C@@H](CC(=O)N[C@@H](CCC(=O)O)C(=O)O)C(=O)O [beta-NAAG, N-acetyl-beta-aspartyl-glutamic acid]",–,–,–,–,–,–,does not readily cross the blood-brain barrier,"measures of offensive aggression (latency to bite, bites, contact time, flank marking) ([1]; 3 ng ICV, after the seed finding assay): no significant differences; latency to find the seeds vs saline vehicle ([4]; 3 ng ICV, one hr, five min observation): significantly (p<0.001) different; mean latency to find the seeds ([4]; 3 ng/μl microinjected, former vehicle animals three days later): 21.8 ± 9.7 s; estimated concentration in brain extracellular fluid (molar) ([5]; beta-NAAG 3 ng ICV, FW 304): 36 nM; estimated concentration in brain extracellular fluid ([5]; beta-NAAG 3 ng in 1 μl ICV, brain ca. 1.2 g, 22% extracellular fluid): 11 ng/mL"
